Measured values taken from patent US8440628B2, “Medical compositions containing ghrelin” (Daiichi Sankyo Company, Limited, priority 2002, dated 2013).

Assay: Stability of human ghrelin in 0.1M HCl and Mcllvain buffer solutions of various pH at 25°C (Example 2, HPLC peak area ratio)
Format: physicochemical
Description: Human ghrelin was dissolved in the following aqueous solutions in the concentration of about 0.15 μmol/mL (0.5 mg/mL).
0.1M HCl aqueous solution (pH: 1.1)
The pH was adjusted with 0.1M citric aqueous acid and 0.2M dibasic sodium phosphate aqueous solution.
Each solution were stored at 25±2° C. for 8, 24, 48 and 72 hours respectively, and the obtained solutions were detected by HPLC analysis in comparison to the solutions before storage. […] No significant changes of pH in solution before storage and after storage were observed.

[1] = human ghrelin 0.5 mg/mL in 0.1M HCl aqueous solution, pH 1, 25±2°C, 8 hr. after
[2] = human ghrelin 0.5 mg/mL in 0.1M HCl aqueous solution, pH 1, 25±2°C, 24 hr. after
[3] = human ghrelin 0.5 mg/mL in 0.1M HCl aqueous solution, pH 1, 25±2°C, 48 hr. after
[4] = human ghrelin 0.5 mg/mL in 0.1M HCl aqueous solution, pH 1, 25±2°C, 72 hr. after
[5] = human ghrelin 0.5 mg/mL in 0.1M HCl aqueous solution, pH 1, 25±2°C, before storage
[6] = human ghrelin 0.5 mg/mL in Mcllvain buffer, pH 2, 25±2°C, 8 hr. after
[7] = human ghrelin 0.5 mg/mL in Mcllvain buffer, pH 2, 25±2°C, 24 hr. after
[8] = human ghrelin 0.5 mg/mL in Mcllvain buffer, pH 2, 25±2°C, 48 hr. after
[9] = human ghrelin 0.5 mg/mL in Mcllvain buffer, pH 2, 25±2°C, 72 hr. after
[10] = human ghrelin 0.5 mg/mL in Mcllvain buffer, pH 2, 25±2°C, before storage
[11] = human ghrelin 0.5 mg/mL in Mcllvain buffer, pH 3, 25±2°C, 8 hr. after
[12] = human ghrelin 0.5 mg/mL in Mcllvain buffer, pH 3, 25±2°C, 24 hr. after
[13] = human ghrelin 0.5 mg/mL in Mcllvain buffer, pH 3, 25±2°C, 48 hr. after
[14] = human ghrelin 0.5 mg/mL in Mcllvain buffer, pH 3, 25±2°C, 72 hr. after
[15] = human ghrelin 0.5 mg/mL in Mcllvain buffer, pH 3, 25±2°C, before storage
[16] = human ghrelin 0.5 mg/mL in Mcllvain buffer, pH 4, 25±2°C, 8 hr. after
[17] = human ghrelin 0.5 mg/mL in Mcllvain buffer, pH 4, 25±2°C, 24 hr. after
[18] = human ghrelin 0.5 mg/mL in Mcllvain buffer, pH 4, 25±2°C, 48 hr. after
[19] = human ghrelin 0.5 mg/mL in Mcllvain buffer, pH 4, 25±2°C, 72 hr. after
[20] = human ghrelin 0.5 mg/mL in Mcllvain buffer, pH 4, 25±2°C, before storage
[21] = human ghrelin 0.5 mg/mL in Mcllvain buffer, pH 5, 25±2°C, 8 hr. after
[22] = human ghrelin 0.5 mg/mL in Mcllvain buffer, pH 5, 25±2°C, 24 hr. after
[23] = human ghrelin 0.5 mg/mL in Mcllvain buffer, pH 5, 25±2°C, 48 hr. after
[24] = human ghrelin 0.5 mg/mL in Mcllvain buffer, pH 5, 25±2°C, 72 hr. after
[25] = human ghrelin 0.5 mg/mL in Mcllvain buffer, pH 5, 25±2°C, before storage
[26] = human ghrelin 0.5 mg/mL in Mcllvain buffer, pH 6, 25±2°C, 8 hr. after
[27] = human ghrelin 0.5 mg/mL in Mcllvain buffer, pH 6, 25±2°C, 24 hr. after
[28] = human ghrelin 0.5 mg/mL in Mcllvain buffer, pH 6, 25±2°C, 48 hr. after

Peak area ratio to total peak area [1]: 94.40%
pH observed [1]: 1.2
Peak area ratio to total peak area [2]: 86.00%
pH observed [2]: 1.2
Peak area ratio to total peak area [3]: 74.62%
pH observed [3]: 1.2
Peak area ratio to total peak area [4]: 65.04%
pH observed [4]: 1.2
Peak area ratio to total peak area [5]: 98.89%
pH observed [5]: 1.1
Peak area ratio to total peak area [6]: 98.82%
pH observed [6]: 2.0
Peak area ratio to total peak area [7]: 98.24%
pH observed [7]: 2.0
Peak area ratio to total peak area [8]: 97.35%
pH observed [8]: 2.0
Peak area ratio to total peak area (human ghrelin 0.5 mg/mL in Mcllvain buffer, pH 2, 25±2°C, 48 hr. after, listed as human ghrelin): less than 98%
Peak area ratio to total peak area [9]: 96.46%
pH observed [9]: 2.0
Peak area ratio to total peak area [10]: 99.07%
pH observed [10]: 2.0
Peak area ratio to total peak area [11]: 98.98%
pH observed [11]: 3.1
Peak area ratio to total peak area [12]: 98.77%
pH observed [12]: 3.1
Peak area ratio to total peak area [13]: 98.40%
pH observed [13]: 3.1
Peak area ratio to total peak area [14]: 98.03%
pH observed [14]: 3.1
Peak area ratio to total peak area [15]: 99.07%
pH observed [15]: 3.0
Peak area ratio to total peak area [16]: 99.07%
pH observed [16]: 4.0
Peak area ratio to total peak area [17]: 98.92%
pH observed [17]: 4.0
Peak area ratio to total peak area [18]: 98.69%
pH observed [18]: 4.0
Peak area ratio to total peak area [19]: 98.44%
pH observed [19]: 4.0
Peak area ratio to total peak area [20]: 99.07%
pH observed [20]: 4.0
Peak area ratio to total peak area [21]: 99.04%
pH observed [21]: 5.0
Peak area ratio to total peak area [22]: 98.91%
pH observed [22]: 5.0
Peak area ratio to total peak area [23]: 98.59%
pH observed [23]: 5.0
Peak area ratio to total peak area [24]: 98.37%
pH observed [24]: 5.0
Peak area ratio to total peak area [25]: 99.06%
pH observed [25]: 5.0
Peak area ratio to total peak area [26]: 98.87%
pH observed [26]: 6.0
Peak area ratio to total peak area [27]: 98.28%
pH observed [27]: 6.0
Peak area ratio to total peak area [28]: 97.64%
pH observed [28]: 6.0
Peak area ratio to total peak area (human ghrelin 0.5 mg/mL in Mcllvain buffer, pH 6, 25±2°C, 48 hr. after, listed as human ghrelin): less than 98%
SMILES: CCCCCCCC(=O)OC[C@H](NC(=O)[C@H](CO)NC(=O)CN)C(=O)N[C@@H](Cc1ccccc1)C(=O)N[C@@H](CC(C)C)C(=O)N[C@@H](CO)C(=O)N1CCC[C@H]1C(=O)N[C@@H](CCC(=O)O)C(=O)N[C@@H](Cc1c[nH]cn1)C(=O)N[C@@H](CCC(N)=O)C(=O)N[C@@H](CCCNC(=N)N)C(=O)N[C@H](C(=O)N[C@@H](CCC(N)=O)C(=O)N[C@@H](CCC(N)=O)C(=O)N[C@@H](CCCNC(=N)N)C(=O)N[C@@H](CCCCN)C(=O)N[C@@H](CCC(=O)O)C(=O)N[C@@H](CO)C(=O)N[C@@H](CCCCN)C(=O)N[C@@H](CCCCN)C(=O)N1CCC[C@H]1C(=O)N1CCC[C@H]1C(=O)N[C@@H](C)C(=O)N[C@@H](CCCCN)C(=O)N[C@@H](CC(C)C)C(=O)N[C@@H](CCC(N)=O)C(=O)N1CCC[C@H]1C(=O)N[C@@H](CCCNC(=N)N)C(=O)O)C(C)C [Human ghrelin]
